This passage reports kinact, T1/2 and IC50 results from ChEMBL document CHEMBL1141032, “Design and synthesis of peptidomimetic severe acute respiratory syndrome chymotrypsin-like protease inhibitors” (J Med Chem, 2005).

For assay [1], the target named is Replicase polyprotein 1a (Severe acute respiratory syndrome-related coronavirus) (UniProt P0C6U8). Description: Inactivation rate constant against SARS-CoV 3CLpro protease.
The target is the same in assay [2]. Description: Half life period against SARS-CoV 3CLpro protease.
The target in another assay is Replicase polyprotein 1a (Severe acute respiratory syndrome-related coronavirus, UniProt P0C6U8). Description: Inhibitory concentration required for antiviral activity against SARS-CoV 3CLpro protease.
The target of assay [3] is Replicase polyprotein 1a (Severe acute respiratory syndrome-related coronavirus) (UniProt P0C6U8).

As to `CCOC(=O)/C=C/[C@H](C[C@@H]1CCNC1=O)NC(=O)[C@H](Cc1ccccc1)CC(O)[C@@H](NC(=O)c1cc(C)on1)C(C)C` (some centres undefined), in assay [1], the kinact (commonly the rate constant of inactivation at saturating inhibitor) came to 0.0025 min⁻¹. The T1/2 in assay [2] was found to be 4.62 h.
As for `CCOC(=O)/C=C/[C@H](C[C@@H]1CCNC1=O)NC(=O)[C@@H](CC(=O)[C@@H](NC(=O)c1cc(C)on1)C(C)C)Cc1ccccc1`, in assay [1], the kinact is 0.014 min⁻¹. For the same molecule, the IC50 (commonly the concentration that inhibits the measured activity by half) against Replicase polyprotein 1a was found to be 45 µM. Moreover, in assay [2], the T1/2 was 0.817 h.
For `CC(C)C[C@H](NC(=O)[C@@H](O)C(S)C(=O)O)C(=O)NCCCCN=C(N)N` (some centres undefined), the kinact in assay [1] is 0.0022 min⁻¹. The molecule also came in with a T1/2 in assay [2] of 5.25 h.
Consider `CCOC(=O)/C=C/[C@H](C[C@@H]1CCNC1=O)NC(=O)[C@H](CC=C(C)C)CC(=O)[C@@H](NC(=O)c1cc(C)on1)C(C)C`, for which, in assay [3], the kinact turned out to be 0.045 min⁻¹. Also, the T1/2 in assay [2] was determined as 0.25 h.
